Where a name gives a salt, the structure may show the parent alone.

Recombinant Human (rh) DPP1, sequence (P53634 25-463): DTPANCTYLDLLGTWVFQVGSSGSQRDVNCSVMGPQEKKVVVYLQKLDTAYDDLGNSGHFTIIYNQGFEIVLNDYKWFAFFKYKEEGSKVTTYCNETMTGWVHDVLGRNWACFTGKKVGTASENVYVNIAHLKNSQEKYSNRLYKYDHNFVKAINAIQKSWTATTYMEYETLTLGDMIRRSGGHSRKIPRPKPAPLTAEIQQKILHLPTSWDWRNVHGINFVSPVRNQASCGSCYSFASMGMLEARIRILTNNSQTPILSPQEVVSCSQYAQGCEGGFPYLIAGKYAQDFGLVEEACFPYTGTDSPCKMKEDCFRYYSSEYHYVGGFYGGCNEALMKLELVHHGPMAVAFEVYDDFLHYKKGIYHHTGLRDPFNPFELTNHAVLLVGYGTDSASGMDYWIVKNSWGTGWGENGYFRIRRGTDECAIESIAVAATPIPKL

For the assay, the target named is Recombinant Human (rh) DPP1 (Homo sapiens, UniProt P53634). The assay can be described thus: Fluorescence Assay for Recombinant Human (rh) DPP1. The class given is biochemical. The following applies: rhDPP1; substrate H-Gly-Arg-AMC; pH5.0; 30 min pre-incubation, 60 min reaction at 22° C.; highest concentration 10 μM; read-out: DPP1 activity, pIC50 (converted). How it is done:
Fluorescence Assay for Recombinant Human (rh) DPP1
The activity of DPP1 was determined by measuring the enzymatic release of aminomethyl coumarin (AMC) from the peptide substrate (H-Gly-Arg-AMC), which leads to an increase in fluorescence intensity at λex=350 nm and λem=450 nm. The assay was carried out in black 384 well plates in a final volume of 50 μl at 22° C. The assay conditions contained the following: 25 mM piperazine buffer pH5.0; 50 mM NaCl, 5 mM DTT; 0.01% (v/v) Triton X-100; 100 μM H-Gly-Arg-AMC and rhDPP1 ([…]). Potential inhibitors were made up in DMSO and then diluted in the assay to give a final concentration of 1% (v/v) DMSO. A 12-point half-log dilution of the inhibitors (highest concentration 10 μM) was tested and the pIC50 determined using a 4-parameter logistic equation in a non-linear curve fitting routine. A standard DPP1 inhibitor (vinyl sulfone, see below) was used as a positive control in the assay. Routinely, inhibitors were pre-incubated with rhDPP1 for 30 min prior to the addition of the peptide substrate to start the reaction for a further 60 min at 22° C. After that the plates were immediately read in a fluorescence plate reader using the above emission and excitation wavelengths [modified from Kam, C M, Gotz, M G, Koot, G, McGuire, M J, Thiele, D L, Hudig, D & Powers, J C (2004). Arch Biochem Biophys, 427, 123-134 & McGuire, M J, Lipsky, P E & Thiele, D L (1992). Arch Biochem Biophys, 295, 280-288].
As to `CN1CCCN(S(=O)(=O)c2ccc(-c3ccc(CC(C#N)NC(=O)[C@@H]4CCCCN4)cc3)cc2)CC1` (stereo partly drawn) [Example 108, (2S)-N-(1-Cyano-2-(4′-(4-methyl-1,4-diazepan-1-ylsulfonyl)biphenyl-4-yl)ethyl)piperidine-2-carboxamide Ditrifluoroacetate], the IC50 is 31.6 nM.

For `N#C[C@H](Cc1ccc(-c2ccc(O)cc2)cc1)NC(=O)[C@@H]1CCCCN1` [Example 23, (2S)-N-[(1S)-1-Cyano-2-[4-(4-hydroxyphenyl)phenyl]ethyl]piperidine-2-carboxamide trifluoroacetate], the IC50 was 63.1 nM.

For the compound `CSc1ccc(-c2ccc(C[C@@H](C#N)NC(=O)[C@@H]3CCCCN3)cc2)cc1C#N` [Example 63, (S)-N-((S)-1-cyano-2-(3′-cyano-4′-(methylthio)biphenyl-4-yl)ethyl)piperidine-2-carboxamide], the IC50 was 7.94 nM.

Consider `CN(C)S(=O)(=O)c1ccc(-c2ccc(C[C@@H](C#N)NC(=O)[C@@H]3CCCCN3)cn2)cc1` [Example 80, (S)-N-((S)-1-Cyano-2-(6-(4-(N,N-dimethylsulfamoyl)phenyl)pyridin-3-yl)ethyl)piperidine-2-carboxamide Trifluoroacetate], for which the IC50 was 31.6 nM.

`N#C[C@H](Cc1ccc(-c2cccc3cccnc23)cc1)NC(=O)[C@@H]1CCCCN1` [Example 49, (2S)-N-[(1S)-1-Cyano-2-(4-quinolin-8-ylphenyl)phenyl]piperidine-2-carboxamide trifluoroacetate]: the IC50 was 2000 nM.

For the compound `COc1ncccc1-c1ccc(C[C@@H](C#N)NC(=O)[C@@H]2CCCCN2)cc1` [Example 40, (2S)-N-[(1S)-1-Cyano-2-[4-(2-methoxypyridin-3-yl)phenyl]ethyl]piperidine-2-carboxamide trifluoroacetate], the IC50 is 316 nM.

`CN1CCN(C(=O)c2ccc(-c3ccc(C[C@@H](C#N)NC(=O)[C@@H]4CCCCN4)cc3)cc2)CC1` [Example 76, (S)-N-((S)-1-Cyano-2-(4′-(4-methylpiperazine-1-carbonyl)biphenyl-4-yl)ethyl)piperidine-2-carboxamide Trifluoroacetate]: the IC50 was 158 nM.

For `CCN1CCN(S(=O)(=O)c2ccc(-c3ccc(CC(C#N)NC(=O)[C@@H]4CCCCN4)cc3)cc2)CC1` (stereo partly drawn) [Example 107, ((2S)-N-(1-Cyano-2-(4′-(4-ethylpiperazin-1-ylsulfonyl)biphenyl-4-yl)ethyl)piperidine-2-carboxamide Ditrifluoroacetate], the IC50 is 5.01 nM.

Take `Cn1nccc1-c1ccc(C[C@@H](C#N)NC(=O)[C@@H]2CCCCN2)cc1` [Example 41, (2S)-N-[(1S)-1-Cyano-2-[4-(2-methylpyrazol-3-yl)phenyl]ethyl]piperidine-2-carboxamide trifluoroacetate]: the IC50 is 398 nM.

Regarding `Cn1c(=O)sc2cc(-c3ccc(C[C@@H](C#N)NC(=O)[C@@H]4CCCCN4)cc3)ccc21` [Example 98, (S)-N-((S)-1-Cyano-2-(4-(3-methyl-2-oxo-2,3-dihydrobenzo[d]thiazol-6-yl)phenyl)ethyl)piperidine-2-carboxamide], the IC50 was 50.1 nM.

With `N#C[C@H](Cc1ccc(-c2ccc(OC(F)(F)F)cc2)cc1)NC(=O)[C@@H]1CCCCN1` [Example 105, (S)-N-((S)-1-Cyano-2-(4′-(trifluoromethoxy)biphenyl-4-yl)ethyl)piperidine-2-carboxamide], the IC50 was 20 nM.

`CS(=O)(=O)c1ccc(-c2ccc(C[C@@H](C#N)NC(=O)[C@@H]3CCCCN3)cc2)cc1` [Example 106, (S)-N-((S)-1-Cyano-2-(4′-(methylsulfonyl)biphenyl-4-yl)ethyl)piperidine-2-carboxamide]: the IC50 is 12.6 nM.

For the compound `CN(C)c1ncc(-c2ccc(C[C@@H](C#N)NC(=O)[C@@H]3CCCCN3)cc2)cn1` [Example 37, (2S)-N-[(1S)-1-Cyano-2-[4-(2-dimethylaminopyrimidin-5-yl)phenyl]ethyl]piperidine-2-carboxamide trifluoroacetate], the IC50 is 316 nM.

With `N#Cc1ccc(-c2ccc(C[C@@H](C#N)NC(=O)[C@@H]3CCCCN3)cn2)cc1` [Example 77, (S)-N-((S)-1-Cyano-2-(6-(4-cyanophenyl)pyridin-3-yl)ethyl)piperidine-2-carboxamide Trifluoroacetate], the IC50 is 31.6 nM.

For `N#C[C@H](Cc1ccc(-c2ccc3c(c2)OCCO3)cc1)NC(=O)[C@@H]1CCCCN1` [Example 35, (2S)-N-[(1S)-1-Cyano-2-[4-(2,5-dioxabicyclo[4.4.0]deca-7,9,11-trien-8-yl)phenyl]ethyl]piperidine-2-carboxamide trifluoroacetate], the IC50 is 251 nM.

Consider `N#C[C@H](Cc1ccc(-c2ccc(F)cc2OCc2ccccc2)cc1)NC(=O)[C@@H]1CCCCN1` [Example 30, (2S)-N-[(1S)-1-Cyano-2-[4-(4-fluoro-2-phenylmethoxy-phenyl)phenyl]ethyl]pipe-ridine-2-carboxamide trifluoroacetate], for which the IC50 was 100 nM.

For `N#C[C@H](Cc1ccc(-c2cccc(Cl)c2)cc1)NC(=O)[C@@H]1CCCCN1` [Example 1, (S)-N-((S)-2-(3′-Chlorobiphenyl-4-yl)-1-cyanoethyl)piperidine-2-carboxamide Trifluoroacetate], the IC50 was 63.1 nM.

Consider `CC(=O)NCc1cccc(-c2ccc(C[C@@H](C#N)NC(=O)[C@@H]3CCCCN3)cc2)c1` [Example 90, (S)-N-((S)-2-(3′-(Acetamidomethyl)biphenyl-4-yl)-1-cyanoethyl)-piperidine-2-carboxamide Trifluoroacetate], for which the IC50 was 126 nM.

`N#CC(Cc1ccc(-c2ccc(S(=O)(=O)N3CCOCC3)cc2)cc1)NC(=O)[C@@H]1CCCCN1` (mixture of isomers) [Example 94, (S)-N-((S)-1-Cyano-2-(4′-(morpholinosulfonyl)biphenyl-4-yl)ethyl)piperidine-2-carboxamide Trifluoroacetate]: the IC50 is 15.8 nM.

`N#CC1CCN(S(=O)(=O)c2ccc(-c3ccc(C[C@@H](C#N)NC(=O)[C@@H]4CCCCN4)cc3)cc2)CC1` [Example 91, (S)-N-((S)-1-Cyano-2-(4′-(4-cyanopiperidin-1-ylsulfonyl)biphenyl-4-yl)ethyl)piperidine-2-carboxamide Trifluoroacetate]: the IC50 was 12.6 nM.

Turning to `N#C[C@H](Cc1ccc(-c2ccc(C(=O)N3CCCC3)cc2)cc1)NC(=O)[C@@H]1CCCCN1` [Example 75, (S)-N-((S)-1-Cyano-2-(4′-(pyrrolidine-1-carbonyl)biphenyl-4-yl)ethyl)piperidine-2-carboxamide Trifluoroacetate], the IC50 was 200 nM.

For `COCCn1c(=O)oc2ccc(-c3ccc(C[C@@H](C#N)NC(=O)[C@@H]4CCCCN4)cc3)cc21` [Example 97, (S)-N-((S)-1-Cyano-2-(4-(3-(2-methoxyethyl)-2-oxo-2,3-dihydrobenzo[d]-oxazol-5-yl)phenyl)ethyl)piperidine-2-carboxamide], the IC50 was 15.8 nM.

For `N#C[C@H](Cc1ccc(-c2ccccc2)cc1)NC(=O)[C@@H]1CCCN1` [Example 3, (S)-N-((S)-2-(Biphenyl-4-yl)-1-cyanoethyl)pyrrolidine-2-carboxamide], the IC50 is 316 nM.

Take `N#CCCNC(=O)c1cccc(-c2ccc(C[C@@H](C#N)NC(=O)[C@@H]3CCCCN3)cc2)c1` [Example 85, (S)-N-((S)-1-Cyano-2-(3′-(2-cyanoethylcarbamoyl)biphenyl-4-yl)ethyl)piperidine-2-carboxamide]: the IC50 is 126 nM.

Regarding `CCS(=O)(=O)c1cc(-c2ccc(C[C@@H](C#N)NC(=O)[C@@H]3CCCCN3)cc2)ccc1C#N` [Example 59, (S)-N-((S)-1-Cyano-2-(4′-cyano-3′-(ethylsulfonyl)biphenyl-4-yl)ethyl)piperidine-2-carboxamide], the IC50 was 15.8 nM.

Turning to `COc1c(F)cc(F)cc1-c1ccc(C[C@@H](C#N)NC(=O)[C@@H]2CCCCN2)cc1` [Example 44, (2S)-N-[(1S)-1-Cyano-2-[4-(3,5-difluoro-2-methoxy-phenyl)phenyl]ethyl]pipe-ridine-2-carboxamide trifluoroacetate], the IC50 was 631 nM.

For the compound `CN1CCN(S(=O)(=O)c2ccc(-c3ccc(C[C@@H](C#N)NC(=O)[C@@H]4CCCCN4)cc3)cc2)CC1` [Example 95, (S)-N-((S)-1-Cyano-2-(4′-(4-methylpiperazin-1-ylsulfonyl)biphenyl-4-yl)ethyl)piperidine-2-carboxamide Trifluoroacetate], the IC50 was 3.16 nM.

For the compound `N#C[C@H](Cc1ccc(-c2ccccc2O)nc1)NC(=O)[C@@H]1CCCCN1` [Example 79, (S)-N-((S)-1-Cyano-2-(6-(2-hydroxyphenyl)pyridin-3-yl)ethyl)piperidine-2-carboxamide], the IC50 is 316 nM.

Turning to `Cc1cscc1-c1ccc(C[C@@H](C#N)NC(=O)[C@@H]2CCCCN2)cc1` [Example 38, (2S)-N-[(1S)-1-Cyano-2-[4-(4-methylthiophen-3-yl)phenyl]ethyl]piperidine-2-carboxamide trifluoroacetate], the IC50 is 316 nM.
